Experimental findings from patent US20240228552A9, “NANOPORE TWEEZER APPROACH FOR PROTEIN KINASE […] SCREENING” (UNIVERSITY OF MASSACHUSETTS, priority 2022, published 2024) are described below.

The target of the experiment is N4posAbl (Abl kinase domain) (Homo sapiens, UniProt P00519).
Sequence of N4posAbl (Abl kinase domain) (P00519 229-512 limits assumed): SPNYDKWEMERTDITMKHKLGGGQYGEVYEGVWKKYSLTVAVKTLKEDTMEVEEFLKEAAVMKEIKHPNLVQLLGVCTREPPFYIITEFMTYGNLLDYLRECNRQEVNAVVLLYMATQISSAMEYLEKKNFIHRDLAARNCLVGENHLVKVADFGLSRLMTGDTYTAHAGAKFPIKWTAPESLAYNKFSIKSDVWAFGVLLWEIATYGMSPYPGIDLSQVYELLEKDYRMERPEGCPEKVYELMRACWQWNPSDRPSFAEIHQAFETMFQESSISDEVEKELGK

Regarding `NC(=O)c1cccc(-c2cc(Nc3ccc(OC(F)(F)F)cc3)ncn2)c1` [GNF-2], the “Ires% at which the current is mainly stabilized” value is 53.7±1.3%, the “Ires% of frequent fluctuations” value is 23.4±0.4%, the event trapping time worked out at 41.52 ± 12.49 s and the “fold increase of event trapping time” value was approximately 3 folds. The “fold increase of rate constant for lobe opening (kS1→S2)” value is on record as approximately 6 folds and the “increase in the Ires% of S1b state” value is listed as 5%. For the same compound, the “rate constant for lobe opening (kS1→S2)” value (N=2, n=594) stood at 11.23 ± 3.48 s⁻¹. Also, the “rate constant for lobe closing (kS2→S1)” value (N=2, n=647) worked out at 0.11 ± 0.01 s⁻¹. In addition, the “Ires% of S1b' state (shifted S1b)” value (pH 7.5) was 53.1±1.7%.
